Results on 9 molecules are retold here after the NIST ThermoML archive (doi:10.1016/j.tca.2011.02.002).

In general, speed of sound refers to how fast a sound wave travels through the sample. For orientation: mass density means mass per unit of volume.

± gives the expanded uncertainty stated by the source.

For data set [1] the following is noted: 101 kPa, Liquid; for mass density: Vibrating tube method.
Data set [2] in a line: xn = mol fraction of the nth substance listed. Conditions: 101 kPa, Liquid, x1 = 1; for mass density: Vibrating tube method.

Consider `Cc1ccccn1` [2-methylpyridine], for which the speed of sound in data set [1] (298.15 K) was 1380.1 ± 2 m/s; in data set [1] (303.15 K), 1361 ± 2 m/s; in data set [1] (308.15 K), 1339.9 ± 2 m/s. The mass density in data set [1] (298.15 K) worked out at 939.802 ± 0.99 kg/m3; in data set [1] (303.15 K) it was 935.117 ± 0.98 kg/m3; in data set [1] (308.15 K), 930.414 ± 0.98 kg/m3.
In the case of `Cc1cccnc1` [3-methylpyridine], the results for the speed of sound in data set [1] (298.15 K), in data set [1] (303.15 K) and in data set [1] (308.15 K) were 1424 ± 2 m/s, 1404 ± 2 m/s and 1384 ± 2 m/s, respectively. Besides, the mass density amounted to 952.002 ± 1 kg/m3 in data set [1] (298.15 K), 947.449 ± 1 kg/m3 in data set [1] (303.15 K) and 942.831 ± 0.99 kg/m3 in data set [1] (308.15 K).
In the case of `Cc1ccncc1` [4-methylpyridine], the speed of sound in data set [1] (298.15 K) is given as 1431.5 ± 1 m/s; in data set [1] (303.15 K), 1410.7 ± 1 m/s; in data set [1] (308.15 K) it was 1389.9 ± 1 m/s. Also, the mass density in data set [1] (298.15 K) amounted to 950.179 ± 0.3 kg/m3; in data set [1] (303.15 K), 945.413 ± 0.3 kg/m3; in data set [1] (308.15 K) it was 940.821 ± 0.3 kg/m3.
Take `c1ccncc1` [pyridine]: the speed of sound is recorded as 1417.6 ± 1.1 m/s in data set [1] (298.15 K), 1397.4 ± 1.1 m/s in data set [1] (303.15 K) and 1377.1 ± 1.1 m/s in data set [1] (308.15 K). Also, the mass density in data set [1] (298.15 K) turned out to be 978.249 ± 0.3 kg/m3; in data set [1] (303.15 K), 973.224 ± 0.3 kg/m3; in data set [1] (308.15 K) it was 968.166 ± 0.3 kg/m3.
In the case of `C1CCOCC1` [tetrahydropyran], the figures for the speed of sound in data set [1] (298.15 K), in data set [1] (303.15 K) and in data set [1] (308.15 K) were 1269.9 ± 2 m/s, 1246.8 ± 2 m/s and 1224.5 ± 2 m/s, respectively. In addition, the mass density turned out to be 879.136 ± 0.91 kg/m3 in data set [1] (298.15 K), 873.992 ± 0.9 kg/m3 in data set [1] (303.15 K) and 868.831 ± 0.89 kg/m3 in data set [1] (308.15 K).
As for `C1CCOCC1` [tetrahydropyran] + Cc1ccccn1, the mass density is reported as 879.136 ± 0.91 kg/m3 in data set [2] (298.15 K), 873.992 ± 0.9 kg/m3 in data set [2] (303.15 K) and 868.831 ± 0.89 kg/m3 in data set [2] (308.15 K). For the same molecule, the speed of sound in data set [2] (298.15 K) was 1269.9 ± 2 m/s; in data set [2] (303.15 K), 1246.8 ± 2 m/s; in data set [2] (308.15 K), 1224.5 ± 2 m/s.
Consider `C1CCOCC1` [tetrahydropyran] + Cc1cccnc1, for which the mass density in data set [2] (298.15 K) is reported as 879.136 ± 0.91 kg/m3; in data set [2] (303.15 K) it was 873.992 ± 0.9 kg/m3; in data set [2] (308.15 K) it was 868.831 ± 0.89 kg/m3. Moreover, the speed of sound was found to be 1269.9 ± 2 m/s in data set [2] (298.15 K), 1246.8 ± 2 m/s in data set [2] (303.15 K) and 1224.5 ± 2 m/s in data set [2] (308.15 K).
`C1CCOCC1` [tetrahydropyran] + Cc1ccncc1: the mass density came to 879.136 ± 0.91 kg/m3 in data set [2] (298.15 K), 873.992 ± 0.9 kg/m3 in data set [2] (303.15 K) and 868.831 ± 0.89 kg/m3 in data set [2] (308.15 K). Further, the speed of sound in data set [2] (298.15 K) is recorded as 1269.9 ± 2 m/s; in data set [2] (303.15 K), 1246.8 ± 2 m/s; in data set [2] (308.15 K), 1224.5 ± 2 m/s.
In the case of `C1CCOCC1` [tetrahydropyran] + c1ccncc1, the mass density in data set [2] (298.15 K) is on record as 879.136 ± 0.91 kg/m3; in data set [2] (303.15 K), 873.992 ± 0.9 kg/m3; in data set [2] (308.15 K), 868.831 ± 0.89 kg/m3. For the same molecule, the figures for the speed of sound in data set [2] (298.15 K), in data set [2] (303.15 K) and in data set [2] (308.15 K) were 1269.9 ± 2 m/s, 1246.8 ± 2 m/s and 1224.5 ± 2 m/s, respectively.
